Data from patent US20250243194A1, “ANTAGONIST OF ADENOSINE RECEPTORS” (AdoRx Therapeutics Limited, priority 2022, published 2025).
Like-named read-outs stand apart in the source and are kept apart here.

How the values were obtained:
[1] = test system: CD8+ T cells in human whole blood; test: Measurement of pCREB in CD8+ T cells in human whole blood; format: cell-based; details: T-cell, 3 μM NECA, rolipram, FACS
Experimental: Heparinised human whole blood was pre-incubated at 37° C. with serial dilutions of A2a antagonists for 20 min. and the phosphodiesterase inhibitor rolipram to amplify the pCREB response. The adenosine receptor agonist NECA is then added at a final concentration of 3 μM and following a 60 min incubation the blood is fixed and red blood cells lysed. White blood cells are isolated, permeabilized and stained with directly conjugated fluorescent antibodies to phospho-CREB (Alexa Fluor 488) and CD8 (Alexa Fluor 647) and the level of phospho-CREB in CD8+ T cells is measured by FACS using a BD Accuri C6 Flow Cytometer.

[2] = target: human Adenosine A2a receptor (Homo sapiens (Human), UniProt P29274); test: Adenosine receptor TR-FRET binding assay (A2a)
Sequence of human Adenosine A2a receptor (P29274 whole entry): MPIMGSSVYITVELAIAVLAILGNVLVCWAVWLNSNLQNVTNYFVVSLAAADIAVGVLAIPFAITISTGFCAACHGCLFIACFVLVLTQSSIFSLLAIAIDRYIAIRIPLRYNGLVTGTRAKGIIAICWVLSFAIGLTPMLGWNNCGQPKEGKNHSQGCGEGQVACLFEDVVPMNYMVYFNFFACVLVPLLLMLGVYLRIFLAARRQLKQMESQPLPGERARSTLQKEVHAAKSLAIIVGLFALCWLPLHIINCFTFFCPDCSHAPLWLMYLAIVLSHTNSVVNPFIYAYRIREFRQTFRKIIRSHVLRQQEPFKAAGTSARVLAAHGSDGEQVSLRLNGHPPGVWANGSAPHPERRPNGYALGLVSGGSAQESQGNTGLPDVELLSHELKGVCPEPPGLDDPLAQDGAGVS
Experimental: (§1) All FRET binding experiments were conducted at room temperature in white 384-well plates, in assay binding buffer containing 1× LabMed (Cisbio, France), 100 μg/mL saponin, 1% DMSO and 0.02% pluronic acid. Binding of the fluorescently labelled Adenosine receptor antagonist XAC (CA200645, FRET acceptor) to terbium-labelled A1, A2a, A2b and A3 adenosine receptors (FRET donors) was detected by time-resolved FRET due to the close proximity of the donor and acceptor in a binding event. To investigate the ability of unlabelled test compounds to bind to Adenosine A1, A2a, A2b and A3 receptors, dose response curves were constructed that determined the ability of a range of concentrations to inhibit the binding of 30 nM CA200645 to the A2b receptor and 100 nM CA200645 to the A1, A2a, and A3 receptor.
(§2) Serial dilution (1:3 dilutions) of test compounds in neat DMSO and transfer of a 400 nL sample of test compound into the assay plate was carried out using the Mosquito (TTP Labtech, UK). The compound samples were incubated for 2 hours at room temperature with a fixed concentration of CA200645 defined for each receptor (see above) and CHO cell membranes containing the human Adenosine A1 (0.5 μg/well), A2a (0.3 μg/well), A2b (1 μg/well) or A3 (1 μg/well) receptor in 40 μL of assay buffer. Total and non-specific binding of CA200645 was determined in the absence and presence of 10 μM XAC, respectively. Following 2 hours incubation, the level of CA200645 binding was detected on a Pherastar FSX (BMG Labtech, Germany) using standard TR-FRET settings. The terbium donor was excited with three laser flashes at a wavelength of 337 nm, and donor and acceptor emission was detected at 620 nm and 665 nm wavelengths, respectively. FRET ratios were obtained by multiplying the acceptor/donor ratio value by 10,000. Specific binding was determined by subtracting the non-specific binding FRET ratio from the total binding FRET ratio. Compound IC50 curves were analysed using GraphPad Prism 7.0 (GraphPad, USA) and Ki affinity values were determined from the obtained IC50 values using the method of Cheng and Prusoff.

[3] = target: human Adenosine A2b receptor (Homo sapiens (Human), UniProt P29275); test: Adenosine receptor TR-FRET binding assay (A2b); details: inhibition of binding of 30 nM CA200645; CHO cell membranes; Ki from IC50 by Cheng and Prusoff
Sequence of human Adenosine A2b receptor (P29275 whole entry): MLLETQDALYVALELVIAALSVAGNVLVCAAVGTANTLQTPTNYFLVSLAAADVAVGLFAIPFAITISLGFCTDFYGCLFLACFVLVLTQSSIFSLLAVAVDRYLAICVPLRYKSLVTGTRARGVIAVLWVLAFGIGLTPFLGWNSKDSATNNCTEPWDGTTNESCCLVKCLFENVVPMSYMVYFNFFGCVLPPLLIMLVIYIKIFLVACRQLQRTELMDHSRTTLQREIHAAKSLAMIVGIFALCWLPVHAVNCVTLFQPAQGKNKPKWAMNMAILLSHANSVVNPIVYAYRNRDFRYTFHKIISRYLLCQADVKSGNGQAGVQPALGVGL
Experimental: as §1, §2

[4] = target: human Adenosine A1 receptor (Homo sapiens (Human), UniProt P30542); test: Adenosine receptor TR-FRET binding assay (A1)
Sequence of human Adenosine A1 receptor (P30542 whole entry): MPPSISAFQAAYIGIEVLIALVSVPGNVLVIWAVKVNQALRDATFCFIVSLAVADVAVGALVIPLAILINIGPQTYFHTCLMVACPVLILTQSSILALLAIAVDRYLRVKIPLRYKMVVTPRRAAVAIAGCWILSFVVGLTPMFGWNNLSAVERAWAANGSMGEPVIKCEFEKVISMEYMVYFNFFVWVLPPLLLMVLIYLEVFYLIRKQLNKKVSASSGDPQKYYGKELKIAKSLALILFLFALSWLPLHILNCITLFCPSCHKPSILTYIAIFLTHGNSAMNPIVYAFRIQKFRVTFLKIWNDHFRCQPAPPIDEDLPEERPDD
Experimental: as §1, §2

[5] = inhibition of binding of 100 nM CA200645, CHO cell membranes, Ki from IC50 by Cheng and Prusoff

Compound	IC50 [1] [nM]	Ki [2, 5] [nM]	Ki [3] [nM]	Ki [4, 5] [nM]	Ki [2] [nM]	Ki [4] [nM]
Cc1ncnc2ccc(-c3sc(NC(=O)N4CCC5(CC4)CNCCO5)nc3-c3cccc(C#N)c3)cc12 [Example 3.1, N-[4-(3-Cyanophenyl)-5-(4-methylquinazolin-6-yl)thiazol-2-yl]-1-oxa-4,9-diazaspiro[5.5]undecane-9-carboxamide]	10	0.15	1.3	48	–	–
Cc1ncnc2ccc(-c3sc(NC(=O)N4CCC5(CNCCO5)C4)nc3-c3cccc(C#N)c3)cc12 (stereo not shown) [Example 4, N-[4-(3-Cyanophenyl)-5-(4-methylquinazolin-6-yl)thiazol-2-yl]-6-oxa-2,9-diazaspiro[4.5]decane-2-carboxamide]	10	0.19	1.9	27	–	–
Cc1ncnc2ccc(-c3sc(NC(=O)N4CC5(COCCN5)C4)nc3-c3cccc(C#N)c3)cc12 [Example 4.2, N-[4-(3-Cyanophenyl)-5-(4-methylquinazolin-6-yl)thiazol-2-yl]-8-oxa-2,5-diazaspiro[3.5]nonane-2-carboxamide]	–	–	3	–	0.35	34
Cc1ncnc2ccc(-c3sc(NC(=O)N4CCN(C(C)(C)C#N)CC4)nc3-c3cccc(C#N)c3)cc12 [Example 7.2, 4-(1-Cyano-1-methyl-ethyl)-N-[4-(3-cyanophenyl)-5-(4-methylquinazolin-6-yl)thiazol-2-yl]piperazine-1-carboxamide]	–	0.2	1.5	9	–	–
Cc1ncnc2ccc(-c3sc(NC(=O)N4CCOC(CN(C)C)C4)nc3-c3cccc(C#N)c3)cc12 (stereo not shown) [Example 7.8, N-[4-(3-Cyanophenyl)-5-(4-methylquinazolin-6-yl)thiazol-2-yl]-2-[(dimethylamino)methyl]morpholine-4-carboxamide]	–	0.14	2.4	13	–	–

Further lines, results first:

IC50 [1] [nM]	Ki [2, 5] [nM]	Ki [3] [nM]	Ki [4, 5] [nM]	Ki [2] [nM]	Ki [4] [nM]	Compound
5	0.09	0.5	3	–	–	Cc1ncnc2ccc(-c3sc(NC(=O)N4CC5(COC5)C4)nc3-c3cccc(C#N)c3)cc12 [Example 7.29, N-[4-(3-Cyanophenyl)-5-(4-methylquinazolin-6-yl)thiazol-2-yl]-2-oxa-6-azaspiro[3.3]heptane-6-carboxamide]
–	0.38	2.2	11	–	–	Cc1ncnc2ccc(-c3sc(NC(=O)N4CCCNCC4)nc3-c3cccc(C#N)c3)cc12 [Example 7.18, N-[4-(3-Cyanophenyl)-5-(4-methylquinazolin-6-yl)thiazol-2-yl]-1,4-diazepane-1-carboxamide]
216	2	1.8	240	–	–	Cc1cc(-c2sc(NC(=O)N3CCC(C)(C#N)CC3)nc2-c2cccc(C#N)c2)c2[nH]ncc2n1 [Example 19, 4-Cyano-N-[4-(3-cyanophenyl)-5-(5-methyl-1H-pyrazolo[4,3-b]pyridin-7-yl)thiazol-2-yl]-4-methyl-piperidine-1-carboxamide]
–	1.74	6.2	14	–	–	Cc1nc(C)c(-c2sc(NC(=O)N3CC4(COC4)C3)nc2-c2cccc(C#N)c2)o1 [Example 15, N-[4-(3-Cyanophenyl)-5-(2,4-dimethyloxazol-5-yl)thiazol-2-yl]-2-oxa-6-azaspiro[3.3]heptane-6-carboxamide]
–	1.88	1.3	4	–	–	Cc1cc(-c2sc(NC(=O)N3CC4(COC4)C3)nc2-c2cccc(C#N)c2)cn2ccnc12 [Example 29, N-[4-(3-Cyanophenyl)-5-(8-methylimidazo[1,2-a]pyridin-6-yl)thiazol-2-yl]-2-oxa-6-azaspiro[3.3]heptane-6-carboxamide]
–	0.42	2.8	12	–	–	Cc1ncnc2ccc(-c3sc(NC(=O)N4CCC5(CC4)CN(C)CCO5)nc3-c3cccc(C#N)c3)cc12 [Example 7.10, N-[4-(3-Cyanophenyl)-5-(4-methylquinazolin-6-yl)thiazol-2-yl]-4-methyl-1-oxa-4,9-diazaspiro[5.5]undecane-9-carboxamide]
